In PubChem BioAssay AID2060904 (Molecular Pharmacology Branch, DTP, NCI, 2025):

System: 349418-098-R-PDC complex spheroid viability
Experiment: Anticancer human tumor 349418-098-R-PDC patient-derived lung adenocarcinoma cell line growth inhibition [RAS]
Details: for IC50: curve of first compound; for viability, T/C: stronger effect = lower value; active means viability on the fitted dose curve at most 10% of control; inactive means the rest
Source text: RAS pathway inhibitors in Combinations in Complex Spheroids
A high-throughput screen of multi-cell type tumor spheroids was designed to identify active combinations of RAS pathway inhibitors and targeted small molecules. Complex spheroids include a stromal component modeled by human endothelial cells (HUVEC) and fibroblasts modeled by human mesenchymal stem cells (MSCs). The concentration ranges selected for each drug and investigational agent were based upon clinically achievable concentrations if the clinical Cmax of the agent was known.
Compounds. The drugs and investigational agents: abemaciclib (NSC768073), cobimetinib (NSC768068), divarasib (GDC6063, NSC841802), docetaxel (NSC628503), GDC-1971 (RLY-1971, NSC841576), gemcitabine (NSC613327), inavolisib (NSC800729), ipatasertib (NSC767898), KB-0742 (NSC834161), MRTX-1133 (NSC836407), osimertinib (NSC779217), RMC-4630 (NSC839698), RMC-6236 (NSC851965), RMC-6291 (NSC852671), Ro-3306 (NSC812927), sapanisertib (NSC764658), SN-38 (NSC673596), staurosporine (NSC755774), SY5609 (NSC837396), and tovorafenib (DAY101, NSC766906), were obtained from the National Cancer Institute (NCI) Developmental Therapeutics Program Chemical Repository. The FDA-approved anticancer drug set is available from the NCI Developmental Therapeutics Program. […] The stock solutions were prepared in dimethyl sulfoxide (DMSO, Sigma-Aldrich, St. Louis, MO, cat. D2650) at 800-fold the tested concentration and stored at -70 degrees C prior to their use. All drugs and investigational agents were tested over a range starting from a high concentration at or near the clinical Cmax and decreasing in half-log increments. If the clinical Cmax for an agent had not been determined, the highest concentration tested was 10 microM.
Cell Culture. All cells were maintained in an incubator at 37 degrees C and 5% CO2 with 95% humidity. The PDC lines were cultured according to standard operating procedures established by the NCI PDMR. All PDCs were thawed and cultured in Matrigel-coated flasks prepared with a working solution of 1X Ham's F-12 nutrient mix, without supplementation (Invitrogen, Waltham, MA, cat. 11765054), 100 U/mL penicillin-streptomycin (Invitrogen, cat. 15140122), and 2.5% Matrigel (Corning Inc., Corning, NY, cat. 354248) for the first three passages. The 362531-283-R-J2-PDC and 782815-120-R-J1-PDC lines were cultured in 6C/Colon 1B media, which includes advanced DMEM/F-12 (Thermo Fisher Scientific, cat. 12634028), 10 mM HEPES (Thermo Fisher Scientific, cat. 15630080), 1X GlutaMAX supplement (Thermo Fisher Scientific, cat. 35050061), 0.1 mg/mL primocin (InvivoGen, San Diego, CA, cat. ant-pm-2), 10% defined fetal bovine serum, heat inactivated (HyClone Laboratories Inc., Logan, UT, cat. SH30070.03HI), 50% L-WRN conditioned media (ATCC, cat. CRL-3276), 1.25 mM N-Acetyl-L-cysteine (Sigma-Aldrich, cat. A9165), 10 mM nicotinamide (Sigma-Aldrich, cat. N0636), 1X B-27 supplement (Thermo Fisher Scientific, cat. 17504044), 1X N-2 supplement (Thermo Fisher Scientific, cat. 17502048), 50 ng/mL human EGF (Thermo Fisher Scientific, cat. PHG0311), and 10 microM Y-27632 dihydrochloride (Tocris Bioscience, cat. 1254). The K12877-001-R-J1-PDC line was cultured in 6I media, which includes all 6C/Colon 1B media plus 10 ng/mL human FGF-10 (PeproTech, cat. 100-26), 1 ng/mL human FGF-2 (PeproTech, cat. 100-18B), 1 µM prostaglandin E2 (Tocris Bioscience, cat. 2296), […] hydrocortisone (Sigma-Aldrich, cat. H4001), and […] bovine insulin (Sigma-Aldrich, cat. I6634). The K86415-001-R-J1-PDC line was cultured in 6D media, which includes all 6C/Colon 1B media components minus the L-WRN conditioned media. The 485176-168-R4-J1-PDC was cultured in PANC media, which includes all 6C/Colon 1B media plus 100 ng/mL human FGF-10 (PeproTech, cat. 100-26), 500 nM SB-431542 (Selleckchem, cat. S1067), and 10 nM gastrin (Tocris Bioscience, cat. 3006). […]

[1] = second compound 0.0316 µM, first compound 0.0316 µM
[2] = second compound 0.0316 µM, first compound 0.1 µM
[3] = second compound 0.0316 µM, first compound 0.316 µM
[4] = second compound 0.0316 µM, first compound 1 µM
[5] = second compound 0.1 µM, first compound 0.0316 µM
[6] = second compound 0.1 µM, first compound 0.1 µM
[7] = second compound 0.1 µM, first compound 0.316 µM
[8] = second compound 0.1 µM, first compound 1 µM
[9] = second compound 0.316 µM, first compound 0.0316 µM
[10] = second compound 0.316 µM, first compound 0.1 µM
[11] = second compound 0.316 µM, first compound 0.316 µM
[12] = second compound 0.316 µM, first compound 1 µM
[13] = second compound 1 µM, first compound 0.0316 µM
[14] = second compound 1 µM, first compound 0.1 µM
[15] = second compound 1 µM, first compound 0.316 µM
[16] = second compound 1 µM, first compound 1 µM
[17] = second compound 3.16 µM, first compound 0.0316 µM
[18] = second compound 3.16 µM, first compound 0.1 µM
[19] = second compound 3.16 µM, first compound 0.316 µM
[20] = second compound 3.16 µM, first compound 1 µM
[21] = second compound 10 µM, first compound 0.0316 µM
[22] = second compound 10 µM, first compound 0.1 µM
[23] = second compound 10 µM, first compound 0.316 µM
[24] = second compound 10 µM, first compound 1 µM
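Further: spheroids exposed to compound for seven days before viability readout.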

NC1c2ccccc2OC12CCN(c1cnc3c(N4CCCc5ncccc54)n[nH]c3n1)CC2 (centres undefined) + C#Cc1c(F)ccc2cc(O)cc(-c3ncc4c(N5CC6CCC(C5)N6)nc(OCC56CCCN5CC(F)C6)nc4c3F)c12
9.34 µM: IC50 (second compound 0.1 µM)
inactive: viability, T/C [1] 113% | viability, T/C [2] 108% | viability, T/C [3] 96.7% | viability, T/C [4] 79.7% | viability, T/C (second compound 0.0316 µM, first compound 3.16 µM) 90.1% | viability, T/C (second compound 0.0316 µM, first compound 10 µM) 63% | viability, T/C [5] 86.7% | viability, T/C [6] 86.2% | viability, T/C [7] 94.7% | viability, T/C [8] 79.1% | viability, T/C (second compound 0.1 µM, first compound 3.16 µM) 94.3% | viability, T/C (second compound 0.1 µM, first compound 10 µM) 47.6% | viability, T/C [9] 94.2% | viability, T/C [10] 120% | viability, T/C [11] 105% | viability, T/C [12] 76.2% | viability, T/C (second compound 0.316 µM, first compound 3.16 µM) 83.5% | viability, T/C (second compound 0.316 µM, first compound 10 µM) 58.4% | viability, T/C [13] 95.9% | viability, T/C [14] 92.4% | viability, T/C [15] 87.5% | viability, T/C [16] 99.6% | viability, T/C (second compound 1 µM, first compound 3.16 µM) 104% | viability, T/C (second compound 1 µM, first compound 10 µM) 54.2% | viability, T/C [17] 71% | viability, T/C [18] 90.4% | viability, T/C [19] 90.1% | viability, T/C [20] 84.3% | viability, T/C (second compound 3.16 µM, first compound 3.16 µM) 84.9% | viability, T/C (second compound 3.16 µM, first compound 10 µM) 77% | viability, T/C [21] 85.3% | viability, T/C [22] 22.6% | viability, T/C [23] 67.2% | viability, T/C [24] 82.7% | viability, T/C (second compound 10 µM, first compound 3.16 µM) 65.3% | viability, T/C (second compound 10 µM, first compound 10 µM) 67.2%
> 10 µM: IC50 (second compound 0.0316 µM) | IC50 (second compound 0.316 µM) | IC50 (second compound 1 µM) | IC50 (second compound 3.16 µM) | IC50 (second compound 10 µM)

Nc1ccn(C2OC(CO)C(O)C2(F)F)c(=O)n1 (centres undefined) + C#Cc1c(F)ccc2cc(O)cc(-c3ncc4c(N5CC6CCC(C5)N6)nc(OCC56CCCN5CC(F)C6)nc4c3F)c12
inactive: viability, T/C (second compound 0.0316 µM, first compound 0.00316 µM) 22.7% | viability, T/C (second compound 0.1 µM, first compound 0.00316 µM) 22.5% | viability, T/C (second compound 0.316 µM, first compound 0.00316 µM) 22.3% | viability, T/C (second compound 1 µM, first compound 0.00316 µM) 21.2% | viability, T/C (second compound 3.16 µM, first compound 0.00316 µM) 18.1% | viability, T/C (second compound 10 µM, first compound 0.00316 µM) 16%
active: viability, T/C (second compound 0.0316 µM, first compound 0.01 µM) 7.34% | viability, T/C [1] 6.68% | viability, T/C [2] 6.34% | viability, T/C [3] 4.77% | viability, T/C [4] 5.69% | viability, T/C (second compound 0.1 µM, first compound 0.01 µM) 6.75% | viability, T/C [5] 6.72% | viability, T/C [6] 5.71% | viability, T/C [7] 5.49% | viability, T/C [8] 4.87% | viability, T/C (second compound 0.316 µM, first compound 0.01 µM) 7.7% | viability, T/C [9] 6.8% | viability, T/C [10] 6.21% | viability, T/C [11] 6.34% | viability, T/C [12] 5.58% | viability, T/C (second compound 1 µM, first compound 0.01 µM) 7.84% | viability, T/C [13] 5.78% | viability, T/C [14] 6.95% | viability, T/C [15] 6.05% | viability, T/C [16] 5.2% | viability, T/C (second compound 3.16 µM, first compound 0.01 µM) 9.18% | viability, T/C [17] 6.71% | viability, T/C [18] 7.51% | viability, T/C [19] 7.89% | viability, T/C [20] 6.18% | viability, T/C (second compound 10 µM, first compound 0.01 µM) 3.49% | viability, T/C [21] 5.23% | viability, T/C [22] 3.11% | viability, T/C [23] 5.48% | viability, T/C [24] 4.28%
< 0.00316 µM: IC50 (second compound 0.0316 µM) | IC50 (second compound 0.1 µM) | IC50 (second compound 0.316 µM) | IC50 (second compound 1 µM) | IC50 (second compound 3.16 µM) | IC50 (second compound 10 µM)
